Measured values as given in DBAASP.
Converted amounts (≈) assume the structure as drawn. “And” between values parts separate entries of the source, which are not always exact repeats. Equal entries are not always repeated. Blank lines part the entries; values can stand above or below the compound they belong to.

Columns and labels:
Assay in all cases: ≥ marks a high value that may be exact or a test limit, other limits are often not marked, values filed in µg/mL are converted to µM
[1] = tested on: Candida albicans NCYC 1467
[2] = tested on: Enterococcus faecalis NCTC 12697
[3] = tested on: Escherichia coli NCTC 10418
[4] = tested on: Klebsiella pneumoniae ATCC 43816
[5] = tested on: Pseudomonas aeruginosa ATCC 27853
[6] = tested on: Staphylococcus aureus NCTC 10788
[7] = tested on: Staphylococcus aureus NCTC 12493
[8] = tested on: Bacillus subtilis VKM B-501
[9] = tested on: Escherichia coli C600
[10] = tested on: Staphylococcus aureus 209P
[11] = tested on: Enterobacter cloacae 4172
[12] = tested on: Enterococcus faecalis ATCC 29212
[13] = tested on: Escherichia coli 1057
[14] = tested on: Escherichia coli 214
[15] = tested on: Escherichia coli BL21(DE3)
[16] = tested on: Escherichia coli ML-35p
[17] = tested on: Micrococcus luteus VKM B-1314
[18] = tested on: Staphylococcus aureus ATCC 29213
[19] = tested on: Escherichia coli D31
[20] = tested on: Klebsiella pneumoniae ATCC 700603
[21] = tested on: Pseudomonas aeruginosa ATCC 10145
[22] = tested on: Staphylococcus aureus ATCC 27660
[23] = tested on: Escherichia coli K12 MG1655
[24] = tested on: Escherichia coli UTI89
[25] = tested on: Salmonella enterica subsp. enterica serovar Typhimurium ATCC 14028
[26] = tested on: Staphylococcus epidermidis
[27] = tested on: Acinetobacter baumannii CR17
[28] = tested on: Bacillus subtilis CCT 2471
[29] = tested on: Enterobacter cloacae ATCC 23355
[30] = tested on: Escherichia coli ATCC 25922
[31] = tested on: Escherichia coli CCT 1371
[32] = tested on: Pseudomonas aeruginosa ATCC 15442
[33] = tested on: Staphylococcus aureus ATCC 25923
[34] = tested on: Staphylococcus aureus ATCC 6538
[35] = tested on: Staphylococcus saprophyticus

SMILES: CC[C@H](C)[C@H](NC(=O)[C@H](C)NC(=O)[C@H](CCCCN)NC(=O)[C@H](CCCN=C(N)N)NC(=O)[C@H](CC(C)C)NC(=O)[C@H](Cc1ccccc1)NC(=O)[C@H](CCCCN)NC(=O)[C@H](CCCCN)NC(=O)[C@@H](NC(=O)[C@H](CC(C)C)NC(=O)[C@H](CCCCN)NC(=O)CNC(=O)[C@H](Cc1ccccc1)NC(=O)[C@H](CC(C)C)NC(=O)CN)[C@@H](C)CC)C(=O)N[C@@H](CO)C(=O)N[C@@H](Cc1ccc(O)cc1)C(=O)N[C@@H](C)C(=O)N[C@H](C(=O)N[C@@H](CCCCN)C(=O)N[C@@H](CCCCN)C(=O)N[C@@H](C)C(=O)N[C@@H](CCCN=C(N)N)C(=O)NCC(=O)N[C@@H](CCCCN)C(=O)N[C@@H](Cc1cnc[nH]1)C(=O)O)C(C)C [GLFGKLIKKFLRKAISYAVKKARGKH]
- MIC [8]: 0.7 µM (≈ 2.07 µg/mL)
- MIC [9]: 3 µM (≈ 8.88 µg/mL)
- MIC [10]: 1.5 µM (≈ 4.44 µg/mL)

SMILES: CC[C@H](C)[C@H](NC(=O)[C@@H]1CCCN1C(=O)CNC(=O)[C@@H](NC(=O)[C@H](Cc1ccccc1)NC(=O)[C@@H]1CCCN1C(=O)CNC(=O)[C@@H](NC(=O)[C@H](CCCCN)NC(=O)[C@H](Cc1cnc[nH]1)NC(=O)[C@H](Cc1c[nH]c2ccccc12)NC(=O)[C@H](CC(C)C)NC(=O)[C@H](CCCN=C(N)N)NC(=O)[C@H](CCCCN)NC(=O)[C@H](CC(C)C)NC(=O)[C@H](CCCCN)NC(=O)[C@H](CCCCN)NC(=O)[C@H](CCCN=C(N)N)NC(=O)[C@H](Cc1ccccc1)NC(=O)[C@H](CCCN=C(N)N)NC(=O)[C@H](CCCCN)NC(=O)[C@H](Cc1ccccc1)NC(=O)[C@H](CCCN=C(N)N)NC(=O)CN)C(C)C)C(C)C)C(=O)N[C@@H](CC(C)C)C(=O)N[C@@H](Cc1cnc[nH]1)C(=O)N[C@@H](Cc1ccc(O)cc1)C(=O)O [GRFKRFRKKLKRLWHKVGPFVGPILHY]
- MIC [11]: 0.125 µM and 0.25 µM
- MIC [12]: 4 µM and 8 µM
- MIC [13]: 0.125 µM (≈ 0.421 µg/mL)
- MIC [14]: 0.06 µM (≈ 0.202 µg/mL)
- MIC [15]: 0.06 µM (≈ 0.202 µg/mL)
- MIC [9]: 0.06 µM and 0.125 µM
- MIC [16]: 0.06 µM (≈ 0.202 µg/mL)
- MIC [17]: 0.25 µM and 0.5 µM
- MIC [18]: 1 µM and 2 µM

SMILES: CC(C)C[C@H](NC(=O)[C@H](CCCCN)NC(=O)[C@H](CCCCN)NC(=O)[C@H](C)NC(=O)[C@H](CCCCN)NC(=O)[C@H](CCCCN)NC(=O)[C@H](C)NC(=O)CNC(=O)[C@H](CCCCN)NC(=O)[C@H](C)NC(=O)[C@H](Cc1c[nH]c2ccccc12)NC(=O)[C@H](C)NC(=O)[C@H](CCCCN)NC(=O)[C@H](C)NC(=O)[C@H](C)NC(=O)[C@H](CCCCN)NC(=O)[C@@H](N)CCCCN)C(=O)N[C@@H](C)C(=O)N[C@@H](CCCCN)C(=O)NCC(=O)N[C@@H](C)C(=O)NCC(=O)O [KKAAKAWAKGAKKAKKLAKGAG]
- MIC [19]: 15 µM (≈ 33.2 µg/mL)
- MIC [20]: > 15 µM
- MIC [21]: 15 µM (≈ 33.2 µg/mL)
- MIC [22]: 15 µM (≈ 33.2 µg/mL)

The next lines start with the values.

- MIC [1]: 16 µM (≈ 32 µg/mL)
- MIC [2]: ≥ 32 µM
- MIC [3]: ≥ 128 µM
- MIC [4]: ≥ 256 µM
- MIC [5]: > 512 µM
- MIC [6]: 8 µM (≈ 16 µg/mL)
- MIC [7]: 16 µM (≈ 32 µg/mL)
SMILES: CC[C@H](C)[C@H](NC(=O)[C@H](C)NC(=O)[C@H](CCCCN)NC(=O)[C@@H]1CCCN1C(=O)[C@@H](NC(=O)[C@H](CC(C)C)NC(=O)[C@H](CO)NC(=O)[C@H](CC(C)C)NC(=O)[C@@H](N)Cc1ccccc1)[C@@H](C)CC)C(=O)N[C@@H](CO)C(=O)N[C@@H](C)C(=O)N[C@H](C(=O)N[C@@H](CO)C(=O)N[C@@H](C)C(=O)N[C@@H](CC(C)C)C(=O)N[C@@H](C)C(=O)N[C@@H](CC(N)=O)C(=O)N[C@@H](Cc1cnc[nH]1)C(=O)N[C@@H](Cc1ccccc1)C(N)=O)C(C)C [FLSLIPKAISAVSALANHF]

- MIC [23]: 6.25 µM (≈ 11.7 µg/mL)
- MIC [24]: 6.25 µM (≈ 11.7 µg/mL)
- MIC [25]: 25 µM (≈ 46.9 µg/mL)
- MIC [26]: 25 µM (≈ 46.9 µg/mL)
SMILES: CC[C@H](C)[C@H](NC(=O)[C@H](CCCCN)NC(=O)[C@H](CCC(N)=O)NC(=O)[C@H](Cc1c[nH]c2ccccc12)NC(=O)[C@@H](NC(=O)[C@H](CCCN=C(N)N)NC(=O)[C@@H](N)CCCCN)[C@@H](C)CC)C(=O)N[C@@H](CCCCN)C(=O)N[C@@H](CC(N)=O)C(=O)N[C@@H](Cc1ccccc1)C(=O)N[C@@H](Cc1ccccc1)C(=O)N[C@@H](CCC(N)=O)C(=O)N[C@@H](CCCCN)C(=O)N[C@@H](CC(C)C)C(=O)O [KRIWQKIKNFFQKL]

- MIC [27]: ≥ 173 µM
SMILES: CC[C@H](C)[C@H](NC(=O)[C@H](CC(N)=O)NC(=O)[C@H](CC(C)C)NC(=O)[C@H](CCCCN)NC(=O)[C@H](C)NC(=O)[C@H](CC(C)C)NC(=O)[C@H](C)NC(=O)[C@H](C)NC(=O)[C@H](CC(C)C)NC(=O)[C@H](C)NC(=O)[C@H](CCCCN)NC(=O)[C@H](CCCCN)NC(=O)[C@@H](NC(=O)[C@@H](N)CC(C)C)[C@@H](C)CC)C(N)=O [LIKKALAALAKLNI]

- MIC [28]: ≥ 68 µM
- MIC [29]: ≥ 34 µM
- MIC [30]: 3 µM (≈ 4.39 µg/mL)
- MIC [31]: ≥ 34 µM
- MIC [32]: ≥ 34 µM
- MIC [33]: 3 µM (≈ 4.39 µg/mL)
- MIC [34]: 17 µM (≈ 24.9 µg/mL)
- MIC [26]: ≥ 34 µM
- MIC [35]: 3 µM (≈ 4.39 µg/mL)
SMILES: CC[C@H](C)[C@H](NC(=O)[C@H](C)NC(=O)CNC(=O)[C@H](CC(C)C)NC(=O)[C@@H](NC(=O)[C@H](CCCCN)NC(=O)[C@H](CCCCN)NC(=O)[C@@H](NC(=O)[C@@H](NC(=O)CNC(=O)[C@H](CC(C)C)NC(=O)[C@H](CC(C)C)NC(=O)[C@H](CCCCN)NC(=O)[C@@H](N)CC(C)C)[C@@H](C)CC)C(C)C)C(C)C)C(N)=O [LKLLGIVKKVLGAI]
